Results as given in EP1656183B1, “TREATMENT OF MALE SEXUAL DYSFUNCTION” (Pfizer Limited, priority 2003, dated 2005).
pKi: −log10 of the molar value. Where two headings read alike, the source gives them in different places.

Columns and labels:
anaesthetised rats = experiment: p-chloroamphetamine (PCA)-induced ejaculation and penile erection in anaesthetised rats; assay type: in vivo, Male Sprague Dawley rats; settings: for delay of p-chloroamphetamine (PCA)-induced ejaculation: vasopressin selective doses, plasma concentration of 9-31 nM; for Penile Cups / Penile Flares: % of PCA-induced erections
Procedure: In order to study penile erection and ejaculation the method used was based on the methodology taught in Yonezawa et al (2000) Life Sciences 67, 3031-3039. For ease of reference, this methodology is described below:
Male Sprague Dawley rats, weighing 350-450 g, are used. Prior to the experiments the animals are housed in groups (2 rats per cage) under controlled 12 h light-dark cycle (lights on at 07:00), constant temperature (23±1°C) and humidity (55±5%). They have free access to standard food pellets and water.
Rats are anesthestised with sodium pentobarbitone (50mg/kg, i.p.) and are placed in the supine position. The penis is extruded from its sheath and gently held by a wooden applicator positioned at the base of the penis. The test compounds are administered by intravenous infusion and p-chloroamphetamine (PCA) (5-10mg/kg) is administered i.p. immediately before the sheath retraction and the penile responses, including penile erection, redding and expansion of the penile body, glans erection, engorgement and slight flaring of the glans and cup, glans erection with Intense flaring of the glans, are recorded. Latencies from PCA administration to the initial penile response and ejaculation is also measured In seconds. […]

human V1A receptor = biological target: T1, human V1A receptor (Homo sapiens, UniProt P37288); experiment: Ligand binding assay, [3H]-AVP binding to CHO-hV1A membranes
T1 construct: expressed in transfected cells; host or cells: CHO (CHO-hV1A cell line provided by Marc Thibonnier, Case Western Reserve University)
T1 sequence (P37288 whole entry): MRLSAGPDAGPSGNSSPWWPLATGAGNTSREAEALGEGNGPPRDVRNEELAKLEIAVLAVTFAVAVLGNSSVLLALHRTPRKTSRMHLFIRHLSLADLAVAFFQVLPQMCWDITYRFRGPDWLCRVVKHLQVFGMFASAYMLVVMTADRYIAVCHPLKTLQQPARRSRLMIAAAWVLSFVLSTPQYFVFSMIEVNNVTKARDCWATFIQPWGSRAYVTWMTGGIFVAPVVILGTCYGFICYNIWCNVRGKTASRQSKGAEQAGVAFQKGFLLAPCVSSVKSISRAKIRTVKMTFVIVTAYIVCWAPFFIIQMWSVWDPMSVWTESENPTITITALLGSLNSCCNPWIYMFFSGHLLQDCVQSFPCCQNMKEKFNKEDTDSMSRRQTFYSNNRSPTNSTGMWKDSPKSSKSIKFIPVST
Procedure: Receptor binding assays were performed on cellular membranes prepared from CHO cells stably expressing the human V1A receptor, (CHO-hV1A). […] CHO-hV1A cells were routinely maintained at 37°C In humidified atmosphere with 5% CO2 in DMEM/Hams F12 nutrient mix supplemented with 10 % fetal bovine serum, 2 mM L-glutamine, 15 mM HEPES and 400 µg/ml G418. For bulk production of cell pellets, adherent CHO-hV1A cells were grown to confluency of 90-100% in 850 cm^2 roller bottles containing a medium of DMEM/Hams F12 Nutrient Mix supplemented with 10 % fetal bovine serum, 2 mM L-glutamine and 15 mM HEPES. Confluent CHO-hV1A cells were washed with phosphate-buffered saline (PBS), harvested into ice cold PBS and centrifuged at 1,000 rpm. Cell pellets were stored at -80°C until use. Cell pellets were thawed on ice and homogenised in membrane preparation buffer consisting of 50 mM Tris-HCI, pH 7.4, 5 mM MgCl2 and supplemented with a protease inhibitor cocktail, (Roche). The cell homogenate was centrifuged at 1000 rpm, 10 min, 4°C and the supernatant was removed and stored on ice. The remaining pellet was homogenised and centrifuged as before. The supernatants were pooled and centrifuged at 25,000 x g for 30 min at 4°C. The pellet was resuspended in freezing buffer consisting of 50 mM Tris-HCI, pH 7.4, 5 mM MgCl2 and 20 % glycerol and stored in small aliquots at -80°C until use. Protein concentration was determined using Bradford reagent and BSA as a standard.
Protein linearity followed by saturation binding studies were performed on each new batch of membrane. A membrane concentration was chosen that gave specific binding on the linear portion of the curve. […]
Compounds were tested for their effects on [^3H]-AVP binding to CHO-hV1A membranes, (^3H-AVP; specific activity 65.5 Ci/mmol; NEN Life Sciences). […] The plates were sealed and counted on a TopCount Microplate Scintillation Counter (Packard Instruments). Non-specific binding (NSB) was determined using 1 µM unlabelled d(CH2)5Tyr(Me)AVP ([β-mercapto-β,β-cyclopentamethylene-propionyl,0-Me-Tyr^2,Arg^8]-vasopressin) (βMCPVP), (Sigma). The radioligand binding data was analysed using a four parameter logistic equation with the min forced to 0%. […] Specific binding was calculated by subtracting the mean NSB cpm from the mean Total cpm. For test compounds the amount of ligand bound to the receptor was expressed as % bound = (sample cpm - mean NSB cpm)/specific binding cpm x100. […] The Inhibitory dissociation constant (Ki) was calculated using the Cheng-Prusoff equation: Ki=IC50/(1+[L]/Kd) where [L] is the concentration of ligand present in the well and Kd is the dissociation constant of the radioligand obtained from Scatchard plot analysis.

human Oxytocin receptor = biological target: T2, human Oxytocin receptor (Homo sapiens, UniProt P30559); experiment: Oxytocin receptor binding assay (125I-OVT, SPA)
T2 construct: expressed in transfected cells; host or cells: CHO
T2 sequence (P30559 1-389): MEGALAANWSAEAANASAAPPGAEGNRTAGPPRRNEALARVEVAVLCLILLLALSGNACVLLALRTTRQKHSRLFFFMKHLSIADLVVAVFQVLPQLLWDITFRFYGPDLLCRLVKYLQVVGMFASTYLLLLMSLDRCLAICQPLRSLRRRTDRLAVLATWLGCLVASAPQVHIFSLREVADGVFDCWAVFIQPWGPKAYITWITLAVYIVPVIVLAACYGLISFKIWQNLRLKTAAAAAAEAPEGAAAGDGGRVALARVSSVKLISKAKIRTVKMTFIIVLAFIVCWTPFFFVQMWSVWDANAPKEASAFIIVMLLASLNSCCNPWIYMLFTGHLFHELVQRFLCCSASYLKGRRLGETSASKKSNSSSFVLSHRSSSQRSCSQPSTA
Procedure: As an example for a selectivity assay, an oxytocin receptor binding assay is described below.
CHO-cells engineered to express the human Oxytocin receptor are maintained, and membrane preparations from such cells are prepared according to standard techniques (see e.g. Example 2). They are diluted to 1 mg/ml protein concentration in assay buffer (50 mM Tris-HCl, pH7.8; 10 mM Mg Cl2; 0.25% BSA). SPA beads are resuspended at 50 mg/ml in assay buffer. From these concentrations, beads are pre-coupled with membranes by incubating 30 µg of protein per mg of bead on a top-to-tail shaker for 2 hours at 4 °C. The bead/membranes are then centrifuged at 2000 rpm for 10 mins and the pellet is resuspended at 3 mg/ml.
All manipulations of the ^125I-OVT (NEN, NEX254) are carried out using tips that have been silanised using SigmaCote. All bottles and tubes are also silanised. […] A 5 µl sample is then counted in duplicate using liquid scintillation counting (protocol 61 on Wallac Counter) and the concentration of the ligand is calculated. […] Using the measured concentration, the ^125I-OVT is diluted to 0.3 nM in assay buffer.
20 µl of the bead/membrane preparation is added to the prepared Optiplates using the Multi-drop, after the desired dilutions of test compounds are added to the wells. […] Following a 4 hour incubation at room temperature, the plates are counted using the TopCount NXT for 30s/well.

[1] = Plasma concentration in the copulatory behaviour study; assay type: in vivo; settings: 0.05mgkg^-1 sc, rats
conscious rats = experiment: Copulatory behaviour in conscious rats (ejaculatory latency); assay type: in vivo; settings: 0.05mgkg^-1 sc
Procedure: For all the sexual behavour tests, the male rats were placed in an observation arena (50-60 cm diameter), starting 5 hours into the dark cycle and observed under red ilumination. Three to four minutes after placing the male in the arena, a receptive female (ovariectomised, oestradiol benzoate / progesterone injection 48 hour before behavioural study) was Introduced into the arena and the following parameters noted: • i) ejaculatory latency (EJL; time taken from addition of receptive female into the arena to ejaculation); • ii) copulatory efficiency (CE; ejaculatory latency/ the number of intromissions to ejaculation, i.e. the number of seconds between intromissions); • iii) intromission frequency (IF; the number of intromissions to ejaculation); • iv) mount frequency (MF; the number of mounts to ejaculation); • v) post ejaculatory interval (PEI; the time taken from ejaculation to the commencement of copulatory behaviour).
Rodent copulatory behaviour is characterised by a series of mounts, with and without vaginal insertion (50-80% of mounts result in intromission [vaginal penetration]) and ejaculation occurs after 6 to 12 intromissions. Each intromission lasts a matter of seconds - it is not possible to quantify intromission length i.e. intravaginal latency. The effect of L-371257 was assessed on a number of copulatory parameters (see above). […]

[2] = plasma conc 30.9nM, listed as compound 1

Structure (SMILES)	time taken for the rats to achieve erection (anaesthetised rats; anaesthetised rats, PCA-induced)	Ejaculation was delayed (anaesthetised rats; anaesthetised rats, free plasma concentrations 30.9nM, near maximal effect)	delay of p-chloroamphetamine (PCA)-induced ejaculation (anaesthetised rats; anaesthetised rats)	delay of p-chloroamphetamine (PCA)-induced ejaculation (anaesthetised rats; anaesthetised rats, listed as compound 1)	ejaculation and penile erection (anaesthetised rats; at both plasma conc 11.4nM and 30.9nM)	Penile Cups (anaesthetised rats; plasma conc 11.4nM)	Penile Flares (anaesthetised rats; plasma conc 11.4nM)	Penile Cups (anaesthetised rats; plasma conc 30.9nM)	Penile Flares (anaesthetised rats; plasma conc 30.9nM)	Penile Cups (anaesthetised rats; [2])	Penile Flares (anaesthetised rats; [2])	pKi (human V1A receptor)	selective towards vasopressin V1a receptors as compared with oxytocin receptors (human V1A receptor)	pKi (human Oxytocin receptor; read-out: oxytocin receptors (OT; Ki OT))	Plasma conc [1]	selective towards oxytocin receptors as compared with vasopressin V1a receptors (human V1A receptor; as printed: OT vs V1a)	pKi (human V1A receptor; read-out: vasopressin V1a receptors (V1a; Ki V1a))	other effects on copulatory behaviour (conscious rats)	Increased ejaculatory latency (conscious rats; P<0.05 versus vehicle)	pKi (human Oxytocin receptor; read-out: oxytocin receptors (OT))
COC1CCN(Cc2nnc(C3CCN(c4ccccn4)CC3)n2Cc2ccccc2)CC1 [Compound 1, 4-[4-Benzyl-5-(4-methoxy-piperldin-1-ylmethyl)-4H-[1,2,4]triazol-3-yl]-3,4,5,6-tetrahydro-2H-[1,2']bipyridinyl]	not significantly affected	100%	delays ejaculation	significantly delayed	* At both of these concentrations Compound 1 delayed ejaculation without affecting penile erection.	31.6%	81.5%	57.0%	83.6%	57%	84%	7.30	more than 60 fold	5.52						
COc1cc(OC2CCN(C(C)=O)CC2)ccc1C(=O)N1CCC(N2C(=O)OCc3ccccc32)CC1 [Compound L-371257, reference compound]															L-371257 0.05mgkg^-1 sc Plasma conc ∼ 30nM	more than 5 fold	8.43	no other significant effects	67%	7.72
